Experimental data: patent publication US20100210567A1, “USE OF A TUFTSIN AS A THERAPEUTIC AGENT” (priority 2007, published 2010)
Residues, ends and D or L forms follow the SMILES beside them.

What was measured:
in vitro [1] = conditions: human, CEM-SS cells
Pseudomonas aeruginosa = format: cell-based; conditions: 5 micrograms per ml
Streptococcus pneumoniae = format: cell-based; conditions: 5 micrograms per ml
MRSA = conditions: 5 micrograms per ml
in vitro [2] = conditions: human
Procedure: HepG2-2.2.15 is a stable cell line containing the hepatitis B virus (HBV) ayw strain genome (ATCC Cat. No. CRL-11997). […] After 16-24 hours the confluent monolayer of HepG2-2.2.15 cells was washed and the medium was replaced with complete medium containing test peptide—10 micrograms per ml—in duplicate. […] Three days later the culture medium was replaced with fresh medium containing the peptide. Six days following the initial administration of the peptide, the cell culture supernatants was collected, treated with pronase and DNAse and then used in a real-time quantitative TaqMan PCR assay. The PCR-amplified HBV DNA was detected in real-time by monitoring increases in fluorescence signals that result from the exonucleolytic degradation of a quenched fluorescence probe molecule that hybridizes to the amplified HBV DNA. For each PCR amplification, a standard curve was simultaneously generated using dilutions of purified HBV DNA. Antiviral activity was calculated from the reduction in HBV DNA levels (% virus control). A novel dye uptake assay was then employed to measure cell viability, which is used to calculate toxicity (% cell control).

in vitro [3] = format: cell-based; conditions: human, MRC-5 cells

C[C@@H](O)[C@H](N)C(=O)N[C@@H](CCCCN)C(=O)N1CCC[C@H]1C(=O)N[C@@H](CCCNC(=N)N)C(=O)O [Tuftsin, Thr-Lys-Pro-Arg-OH] (H-TKPR-OH)
viability at 10 micrograms per ml (in vitro [1]): 100% | % inhibition (Pseudomonas aeruginosa): 0.0% | % inhibition (Streptococcus pneumoniae): 0.0% | % inhibition (MRSA): 0.0% | viability at 144 h, 10 micrograms per ml (in vitro [2]): 100% | viability at 144 h (in vitro [3]): 100%
